These results are taken from ChEMBL document CHEMBL1126151, “A study on the contribution of the 1-phenyl substituent to the molecular electrostatic potentials of some benzazepines in relation to selective dopamine D-1 receptor activity” (J Med Chem, 1992).

Where only a bound is given, the exact number is not on record here.

The target in this assay is Adenylate cyclase. The assay is described as follows: Compound was tested for the adenylate cyclase stimulation. The class given is protein assay.

Broadly, the EC50 is the concentration needed to bring the measured effect to its halfway point. Low values mean greater potency, high ones weaker potency. `Oc1cc2c(cc1O)[C@@H](C1CCCCC1)CNCC2` yielded an EC50 of over 0.00001 M.

`Oc1cc2c(cc1O)CCNCC2` gave an EC50 of 5.2e-06 M. This counts as single-digit micromolar.
